Laboratory results published in US20060216238A1, “Compositions and methods for targeting or imaging a tissue in a vertebrate subject” (priority 2005, published 2006).

Columns and labels:
cowpea plants [1] = experiment: Infectivity of SGF- or SIF-treated CPMV on cowpea plants; design: species or system Vigna unguiculata; details: SGF 60 minutes or SIF 120 minutes, day 14 post-inoculation
Protocol: (§1) Stability of CPMV particles in simulated gastric conditions. Simulated gastric fluid (SGF) and simulated intestinal fluid (SIF) were prepared according to Takagi et al. Takagi et al., Biol. Pharm. Bull 26:969-973, 2003. Briefly, pepsin (3.8 mg; Sigma) was dissolved into 5 ml of gastric control fluid (2 mg/ml NaCl, pH 2.0). SIF was prepared by dissolving pancreatin, (10 mg/ml; Sigma) in intestinal control fluid (0.05 M […], pH 6.8). Both solutions were used within the same day. SGF (400 μl) was first incubated at 37° C. for 2 minutes before addition of CPMV (200 μg), giving a ratio of 10 U of pepsin activity/μg of CPMV. The tube contents were mixed by mild vortexing and the tube was immediately placed in a 37° C. water bath for time points ranging from 0-60 minutes, followed by neutralization with 70 μl of 200 mM sodium bicarbonate solution. Similarly, SIF was incubated at 37° C. for 2 minutes before addition of CPMV (200 μg) and the tube contents were placed in a 37° C. water bath for time points up to 120 minutes. Aliquots of virus exposed to SGF or SIF were mixed with 5 μl of NuPAGE 4× LDS-sample buffer, run on 4-12% SDS-PAGE gels, and stained with Simply Blue Safe Stain (Invitrogen). […]

cowpea plants [2] = experiment: Recovery of virus particles from mouse tissues, infectivity to cowpea; design: species or system Vigna unguiculata
Protocol: Recovery of virus particles from mouse tissues. Four mice were orally inoculated with 150 μg/mouse of CPMV and 24 hours later, the mice were euthanized and the liver, spleen, and kidney tissues were extracted and pooled. Following homogenization of pooled tissue samples in PBS, the homogenates were centrifuged at 10,000 g for 10 minutes at 4° C., and the cleared tissue supernatants were removed to flat-bottom 50-ml centrifuge tubes, each containing a magnetic flea. Polyethylene glycol 8000 was added to each supernatant to a final concentration of 8% and the mixture was stirred for 30 minutes at 4° C. to precipitate any virus present. The resulting cloudy mixture was centrifuged at 6,000 rpm in a Sorvall RC5C centrifuge for 15 minutes and the pellet was resuspended in 50-500 μl of 0.1 M phosphate buffer (pH 7.0), depending on pellet size. For each tissue homogenate a 7-day-old cowpea plant was dusted with carborundum and the resuspended pellet from each tissue was rubbed onto a single primary leaf. Five to seven days later, the primary and secondary leaves were harvested and a circle of tissue weighing 70 mg was excised from each leaf. RNA was extracted using a Qiagen RNeasy Plant Mini Kit (Qiagen Research, Maryland, USA) and RT-PCR was conducted as described above. PCR products were electrophoresed on a 2% Seakem LE agarose gel. The PCR products were purified from the gel using a PCR purification kit (Qiagen) and sequenced (Retrogen) to confirm that they were CPMV specific. Southern hybridization of the products with a CPMV-specific probe was also performed using ^32P end-labeled oligonucleotides (Amersham Biosciences). PCR products were transfered to Hybond-N+ membrane (Amersham Biosciences) using standard techniques. Hybridization conditions were 3 hours at 55° C. and wash conditions were in 6×SSC/0.5% SDS and were performed twice for five minutes at room temperature and twice for 5 minutes at 50° C.

[3] = biological target: folate receptor (FR) on KB and HeLa cells (Homo sapiens, UniProt P15328); details: 4° C., both cell lines
Flt-1 receptor (VEGFR1) = Flt-1 receptor (VEGFR1) (Homo sapiens, UniProt P17948); experiment: Binding and competition assays using ELISA
KDR receptor (VEGFR2) = KDR receptor (VEGFR2) (Homo sapiens, UniProt P35968); experiment: Binding assay using ELISA
[4] = Stability of CPMV particles in simulated gastric conditions (SGF, SIF); format: in vitro ADME
Protocol: as §1

LCMV = details: mouse, in vivo
cowpea plants [5] = experiment: Infectivity of CPMV following incubation with blood plasma or serum; design: species or system Vigna unguiculata; details: day 7
Protocol: Infectivity of CPMV following incubation with blood. Whole blood samples were obtained from mice following cardiac puncture either with or without heparin. Samples were incubated at 4° C. overnight and then spun at 15,000 rpm for 10 minutes. Blood plasma or serum were recovered and incubated with CPMV (15 ug) in a one to one (v/v) ratio at 37° C. for 30 minutes while a control CPMV sample was incubated with PBS. Primary leaves from 7-day-old cowpea plants were then bruised with carborundum and inoculated with samples (at a concentration of 3 μg CPMV per leaf, or 300-fold more virus than is required to produce lesions) and observed daily for infection-induced mosaic symptoms.

[6] = system: HUVECS stimulated with vegf; experiment: Endothelial cell proliferation assay using CFDA; format: cell-based, human; details: 30 ug/ml; listed as wt CPMV
Protocol: Measure in vitro angiogenesis by endothelial cell proliferation assay. HUVECs were plated in 96 well plates at 10^4 cells/well in 200 ul EGM2 complete medium. Cells were incubated for 24 h at 37° C. in 5% CO2. cells were then washed once in PBS and incubated in serum free, glucose free medium for 24 h to suppress cell growth. Further, the cells were exposed to various treatments like 10% FBS or VEGF165 in the presence or absence of the targeting CPMV chimeras. Wild type CPMV was used as a control. After 48 h incubation, 1 μl of CFDA was added to the wells and the plated were incubated for additional 24 h. The cells were then placed on ice, washed in PBS 3× and finally fixed in cold 10% TCA for 10 minutes. After washing, the cells were lysed and the CFDA incorporation was read at 488 nm.

Chain of Flt-1 receptor (VEGFR1) (P17948 27-1338): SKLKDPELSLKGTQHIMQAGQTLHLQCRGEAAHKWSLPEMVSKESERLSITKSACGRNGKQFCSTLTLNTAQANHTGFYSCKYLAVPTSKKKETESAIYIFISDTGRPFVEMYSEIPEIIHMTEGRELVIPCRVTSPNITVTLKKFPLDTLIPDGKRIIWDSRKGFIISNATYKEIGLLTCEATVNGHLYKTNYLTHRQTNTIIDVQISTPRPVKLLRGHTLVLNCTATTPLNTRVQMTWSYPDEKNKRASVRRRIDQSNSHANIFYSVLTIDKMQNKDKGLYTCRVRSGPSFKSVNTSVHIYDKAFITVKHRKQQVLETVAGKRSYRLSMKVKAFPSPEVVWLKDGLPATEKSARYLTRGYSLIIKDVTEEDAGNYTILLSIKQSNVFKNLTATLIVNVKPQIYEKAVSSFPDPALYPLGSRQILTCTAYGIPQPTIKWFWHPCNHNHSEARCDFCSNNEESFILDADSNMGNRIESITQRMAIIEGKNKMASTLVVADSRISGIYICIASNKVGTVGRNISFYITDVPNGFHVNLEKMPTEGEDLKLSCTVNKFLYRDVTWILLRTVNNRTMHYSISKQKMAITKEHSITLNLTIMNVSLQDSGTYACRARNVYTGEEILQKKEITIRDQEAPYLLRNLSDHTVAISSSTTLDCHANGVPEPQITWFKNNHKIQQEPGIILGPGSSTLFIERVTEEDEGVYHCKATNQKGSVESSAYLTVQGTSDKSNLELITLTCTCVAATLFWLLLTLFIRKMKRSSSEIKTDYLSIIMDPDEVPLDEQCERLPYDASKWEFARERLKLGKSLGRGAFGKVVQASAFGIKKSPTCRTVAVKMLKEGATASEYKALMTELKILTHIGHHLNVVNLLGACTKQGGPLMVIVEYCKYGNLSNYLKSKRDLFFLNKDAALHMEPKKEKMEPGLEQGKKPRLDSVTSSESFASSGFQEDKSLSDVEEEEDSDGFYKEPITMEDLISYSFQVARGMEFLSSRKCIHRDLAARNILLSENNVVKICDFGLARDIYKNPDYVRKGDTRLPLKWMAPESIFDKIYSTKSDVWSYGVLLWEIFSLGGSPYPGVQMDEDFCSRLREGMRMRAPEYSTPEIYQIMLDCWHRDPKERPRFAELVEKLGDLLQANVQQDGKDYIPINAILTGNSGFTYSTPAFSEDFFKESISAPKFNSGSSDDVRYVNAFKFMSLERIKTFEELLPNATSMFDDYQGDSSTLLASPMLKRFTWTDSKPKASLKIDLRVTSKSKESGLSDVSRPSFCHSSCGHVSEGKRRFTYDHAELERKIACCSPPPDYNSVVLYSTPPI
Chain of KDR receptor (VEGFR2) (P35968 20-1356): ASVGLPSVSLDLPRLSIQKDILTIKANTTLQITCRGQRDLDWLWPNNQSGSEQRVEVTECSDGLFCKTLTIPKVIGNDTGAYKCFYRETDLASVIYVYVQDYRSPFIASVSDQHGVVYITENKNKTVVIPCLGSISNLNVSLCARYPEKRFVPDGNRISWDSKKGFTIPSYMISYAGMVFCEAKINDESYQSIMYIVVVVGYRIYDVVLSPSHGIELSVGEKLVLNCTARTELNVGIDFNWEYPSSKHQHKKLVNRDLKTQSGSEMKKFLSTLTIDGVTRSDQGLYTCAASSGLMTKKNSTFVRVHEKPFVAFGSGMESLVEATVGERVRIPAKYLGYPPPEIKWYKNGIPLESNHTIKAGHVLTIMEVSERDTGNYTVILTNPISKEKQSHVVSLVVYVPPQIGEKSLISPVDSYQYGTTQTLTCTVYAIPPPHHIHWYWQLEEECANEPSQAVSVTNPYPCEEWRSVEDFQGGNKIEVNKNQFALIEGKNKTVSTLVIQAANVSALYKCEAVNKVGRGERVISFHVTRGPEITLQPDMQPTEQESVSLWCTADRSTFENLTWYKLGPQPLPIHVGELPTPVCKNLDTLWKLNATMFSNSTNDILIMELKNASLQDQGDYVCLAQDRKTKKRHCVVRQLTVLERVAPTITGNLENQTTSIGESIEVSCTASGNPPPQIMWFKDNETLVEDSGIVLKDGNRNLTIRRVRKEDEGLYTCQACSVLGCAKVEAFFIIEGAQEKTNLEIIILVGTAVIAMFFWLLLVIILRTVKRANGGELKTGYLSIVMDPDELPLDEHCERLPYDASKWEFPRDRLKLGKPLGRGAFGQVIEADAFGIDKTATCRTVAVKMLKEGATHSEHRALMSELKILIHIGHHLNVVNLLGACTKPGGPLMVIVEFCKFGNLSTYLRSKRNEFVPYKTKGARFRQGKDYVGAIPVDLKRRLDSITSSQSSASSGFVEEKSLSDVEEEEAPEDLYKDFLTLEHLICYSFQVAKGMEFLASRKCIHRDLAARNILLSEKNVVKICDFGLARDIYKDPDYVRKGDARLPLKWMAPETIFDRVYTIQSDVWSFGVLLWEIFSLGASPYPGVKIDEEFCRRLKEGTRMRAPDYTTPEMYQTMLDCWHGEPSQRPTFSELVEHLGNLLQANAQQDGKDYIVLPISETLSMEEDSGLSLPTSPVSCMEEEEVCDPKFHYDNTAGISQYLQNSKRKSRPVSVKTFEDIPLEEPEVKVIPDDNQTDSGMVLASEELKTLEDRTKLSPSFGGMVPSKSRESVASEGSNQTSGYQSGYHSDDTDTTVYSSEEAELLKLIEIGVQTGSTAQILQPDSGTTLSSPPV
Chain of folate receptor (FR) on KB and HeLa cells (P15328 25-234): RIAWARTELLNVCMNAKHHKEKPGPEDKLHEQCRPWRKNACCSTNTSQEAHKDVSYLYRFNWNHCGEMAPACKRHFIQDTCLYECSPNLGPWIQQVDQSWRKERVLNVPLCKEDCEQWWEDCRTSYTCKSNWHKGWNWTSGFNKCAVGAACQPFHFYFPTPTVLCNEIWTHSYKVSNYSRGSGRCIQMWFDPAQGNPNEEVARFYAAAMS

cowpea mosaic virus [CPMV]
infectivity on cowpea plants after SGF or SIF (cowpea plants [1]): infectivity similar to untreated CPMV | symptoms on cowpea leaves from virus recovered from mouse liver and spleen (cowpea plants [2]; PEG-precipitated tissue homogenates): No symptoms were observed | inoculated amount required for a PCR signal (cowpea plants [2]; control titration on cowpea): 1 ng | inoculated amount required to observe symptoms (cowpea plants [2]; control titration on cowpea): 10 ng | non-specific binding to the cell surface [3]: significant non-specifig binding | binding to Flt-1 receptor in ELISA (Flt-1 receptor (VEGFR1)): did not show any detectable binding | binding to KDR receptor in ELISA (KDR receptor (VEGFR2)): did not show any detectable binding | integrity on Coomassie-stained gel after SGF ([4]; SGF, pepsin pH 2.0, 37° C., 0-60 minutes): remained intact | integrity on Coomassie-stained gel after SIF ([4]; SIF, pancreatin pH 6.8, up to 120 minutes): remained intact | survival of lethal i.c. LCMV challenge (LCMV): one of six | lesions on primary leaves, plasma-incubated virus (cowpea plants [5]; 30 minutes at 37° C.): 6 lesions per cm | lesions on primary leaves, serum-incubated virus (cowpea plants [5]; 30 minutes at 37° C.): less than 1 lesion per cm^2 | lesions on primary leaves, control infection (PBS) (cowpea plants [5]): too many lesions to count | effect on cell growth/proliferation [6]: did not affect cell growth/proliferation
